1 molecule from ChEMBL document CHEMBL3526061, “Glucuronidation of edaravone by human liver and kidney microsomes: biphasic kinetics and identification of UGT1A9 as the major UDP-glucuronosyltransferase isoform” (Drug Metab Dispos, 2012) can be followed below.

SMILES strings stand for the structures.

Format in all cases: ADME
Data set [1] concerns the target T1, UDP-glucuronosyltransferase 1A7 (Homo sapiens, UniProt Q9HAW7).
T1 sequence (Q9HAW7 whole entry): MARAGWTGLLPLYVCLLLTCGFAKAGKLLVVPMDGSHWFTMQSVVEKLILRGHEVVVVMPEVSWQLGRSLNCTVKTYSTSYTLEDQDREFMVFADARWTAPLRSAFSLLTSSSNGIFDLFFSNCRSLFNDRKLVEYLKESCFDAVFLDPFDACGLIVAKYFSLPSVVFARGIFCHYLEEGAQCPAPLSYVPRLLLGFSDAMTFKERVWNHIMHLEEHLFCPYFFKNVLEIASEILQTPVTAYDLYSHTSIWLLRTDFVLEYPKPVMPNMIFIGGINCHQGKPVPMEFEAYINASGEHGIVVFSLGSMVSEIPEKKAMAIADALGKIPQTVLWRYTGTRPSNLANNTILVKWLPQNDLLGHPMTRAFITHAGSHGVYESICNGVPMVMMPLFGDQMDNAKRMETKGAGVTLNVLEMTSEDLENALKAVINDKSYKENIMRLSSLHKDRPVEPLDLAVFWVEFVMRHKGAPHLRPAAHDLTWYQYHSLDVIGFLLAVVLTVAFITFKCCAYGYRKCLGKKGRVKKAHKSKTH
The data set is described as follows: Activity of human recombinant UGT1A7 expressed in insect cells assessed as enzyme mediated glucuronidation at 12.5 uM by LC-MS/MS method.

The target in data set [2] is T2, UDP-glucuronosyltransferase 1A8 (Homo sapiens, UniProt Q9HAW9).
T2 sequence (Q9HAW9 whole entry): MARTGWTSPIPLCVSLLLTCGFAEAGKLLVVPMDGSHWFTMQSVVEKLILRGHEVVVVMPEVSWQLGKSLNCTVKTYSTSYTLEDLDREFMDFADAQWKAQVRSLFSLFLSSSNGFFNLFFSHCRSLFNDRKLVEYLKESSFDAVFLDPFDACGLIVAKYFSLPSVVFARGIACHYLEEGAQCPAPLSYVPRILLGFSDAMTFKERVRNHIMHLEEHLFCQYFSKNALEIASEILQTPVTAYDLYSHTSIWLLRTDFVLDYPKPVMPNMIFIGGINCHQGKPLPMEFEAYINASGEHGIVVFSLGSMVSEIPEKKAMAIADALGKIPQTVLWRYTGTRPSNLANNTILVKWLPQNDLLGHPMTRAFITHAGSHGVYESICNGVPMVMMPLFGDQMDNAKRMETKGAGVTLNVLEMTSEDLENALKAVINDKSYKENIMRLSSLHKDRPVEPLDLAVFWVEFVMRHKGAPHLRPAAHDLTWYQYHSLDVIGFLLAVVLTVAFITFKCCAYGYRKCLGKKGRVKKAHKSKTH
As to the kind of experiment: Activity of human recombinant UGT1A8 expressed in insect cells assessed as enzyme mediated glucuronidation at 12.5 uM by LC-MS/MS method.

Data set [3] concerns the target T3, UDP-glucuronosyltransferase 1A1 (Homo sapiens, UniProt P22309).
T3 sequence (P22309 whole entry): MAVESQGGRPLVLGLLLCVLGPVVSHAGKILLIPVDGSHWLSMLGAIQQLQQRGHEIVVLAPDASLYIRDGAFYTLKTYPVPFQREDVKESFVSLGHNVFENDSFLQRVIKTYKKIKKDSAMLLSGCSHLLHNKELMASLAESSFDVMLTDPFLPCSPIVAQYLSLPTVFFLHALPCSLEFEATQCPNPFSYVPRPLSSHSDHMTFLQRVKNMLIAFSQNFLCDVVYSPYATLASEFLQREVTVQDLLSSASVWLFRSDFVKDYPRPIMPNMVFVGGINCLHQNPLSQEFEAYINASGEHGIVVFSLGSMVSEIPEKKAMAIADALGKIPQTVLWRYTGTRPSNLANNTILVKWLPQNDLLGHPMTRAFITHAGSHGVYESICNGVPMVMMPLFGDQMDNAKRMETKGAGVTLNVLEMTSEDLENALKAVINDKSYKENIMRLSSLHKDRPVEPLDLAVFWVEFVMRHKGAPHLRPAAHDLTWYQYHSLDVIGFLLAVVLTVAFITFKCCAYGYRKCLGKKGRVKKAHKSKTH
As to the kind of experiment: Activity of human recombinant UGT1A1 expressed in insect cells assessed as intrinsic clearance for enzyme mediated glucuronidation per mg protein by LC-MS/MS method.

Data set [4] addresses T1, UDP-glucuronosyltransferase 1A7. As to the kind of experiment: Activity of human recombinant UGT1A7 expressed in insect cells assessed as intrinsic clearance for enzyme mediated glucuronidation per mg protein by LC-MS/MS method.
The target in data set [5] is T4, UDP-glucuronosyltransferase 1A9 (Homo sapiens, UniProt O60656).
T4 sequence (O60656 whole entry): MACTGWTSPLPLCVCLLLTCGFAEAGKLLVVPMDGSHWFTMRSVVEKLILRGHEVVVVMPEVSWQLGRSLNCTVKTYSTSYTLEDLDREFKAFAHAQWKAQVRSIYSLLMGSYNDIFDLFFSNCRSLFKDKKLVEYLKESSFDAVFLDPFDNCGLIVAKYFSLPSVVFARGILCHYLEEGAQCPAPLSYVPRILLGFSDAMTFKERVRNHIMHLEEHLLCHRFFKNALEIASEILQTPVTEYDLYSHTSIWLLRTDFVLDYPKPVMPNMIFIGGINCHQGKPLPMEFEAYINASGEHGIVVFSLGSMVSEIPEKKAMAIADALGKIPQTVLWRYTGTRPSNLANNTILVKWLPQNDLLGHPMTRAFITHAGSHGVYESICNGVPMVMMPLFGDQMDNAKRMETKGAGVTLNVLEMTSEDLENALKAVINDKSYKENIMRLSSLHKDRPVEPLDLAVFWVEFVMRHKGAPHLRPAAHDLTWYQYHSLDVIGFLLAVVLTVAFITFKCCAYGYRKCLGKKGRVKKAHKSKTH
As to the kind of experiment: Activity of human recombinant UGT1A9 expressed in insect cells assessed as intrinsic clearance for enzyme mediated glucuronidation per mg protein by LC-MS/MS method.

For data set [6], the target named is T3, UDP-glucuronosyltransferase 1A1. As to the kind of experiment: Activity of human recombinant UGT1A1 expressed in insect cells assessed as enzyme mediated glucuronidation in presence of 10 to 50 uM estradiol by LC-MS/MS method.
Data set [7] deals with Liver microsome. As to the kind of experiment: Drug metabolism in human liver microsomes assessed as drug glucuronidation in presence of 100 to 1000 uM propofol by LC-MS/MS method. Background: Liver microsomes are vesicles of endoplasmic reticulum, rich in cytochrome P450 enzymes.
The nature of data set [8]: Drug metabolism in human kidney microsomes assessed as drug glucuronidation in presence of 5 to 35 uM androsterone by LC-MS/MS method.
The target in data set [9] is T4, UDP-glucuronosyltransferase 1A9. The data set is described as follows: Activity of human recombinant UGT1A9 expressed in insect cells assessed as enzyme mediated glucuronidation in presence of 100 to 1000 uM propofol by LC-MS/MS method.
Data set [10] in a line: Drug metabolism in human liver microsomes assessed as drug glucuronidation in absence of BSA by LC-MS/MS method.
Data set [11] concerns Liver microsome. As to the kind of experiment: Drug metabolism in human liver microsomes assessed as drug glucuronidation per mg tissue in absence of BSA by LC-MS/MS method.
Data set [12] has as its target T3, UDP-glucuronosyltransferase 1A1. The data set is described as follows: Activity of human recombinant UGT1A1 expressed in insect cells assessed as enzyme mediated glucuronidation at 500 uM by LC-MS/MS method.
The target in data set [13] is T2, UDP-glucuronosyltransferase 1A8. The data set is described as follows: Activity of human recombinant UGT1A8 expressed in insect cells assessed as enzyme mediated glucuronidation at 500 uM by LC-MS/MS method.

Consider `CC1=NN(c2ccccc2)C(=O)C1` [EDARAVONE], for which the Drug metabolism result was “metabolite_detected” in [1]; “metabolite_detected” in [2]; “metabolite_not_detected” in data set [6]; “metabolite_not_detected” in the data set with Liver microsome [7]; “metabolite_detected” in data set [8]; “metabolite_not_detected” in data set [9]. The Drug metabolism result in data set [12] and in data set [13] was “metabolite_detected” each time. Further, the CL(high) turned out to be 0.2 µL/min/mg in data set [3] and 42.4 µL/min/mg in data set [5]. Also, in data set [4], the CL came out at 1.7 µL/min/g. In data set [5], the CL(low) was 0.8 µL/min/mg. Further, the results for the Km in data set [10] (read-out: KmH) and in data set [10] (read-out: KmL) were 36.7 µM and 5880 µM, respectively. Besides, in the data set on Liver microsome [11], the VmaxH worked out at 309.4 pmol/min/g. In addition, in the data set with Liver microsome [11], the VmaxL is on record as 7429 pmol/min/g.
